Measured values taken from patent US11571485B2, “Peptides and antibodies for detecting changes in alzheimer's disease brain and methods of use thereof” (Sanford Burnham Prebys Medical Discovery Institute, priority 2016, dated 2023).
“Also recorded” adds a separate entry of the source.

Legend:
[1] = tested on: hippocampus of hAPP-J20 AD and wild-type mice; test: In vivo CX7C T7 phage library screen, sequencing of phage recovered from hippocampus; set-up: species or system mouse; settings: 9-month AD mouse vs normal mouse hippocampus
Experimental: In vivo phage screening was conducted using a T7 phage library expressing random peptides with the composition of CXnC (C=cysteine; X=any amino acid; n=7). The mouse model used for this screening is the hAPP-J20 that expresses amyloid precursor protein (APP) with both the Swedish and Indiana mutations (Murrell et al., Science 254, 97-99. (1991); Mullan et al., Nat. Genet. 1, 345-347. (1992)). Peptides homing to the hippocampus of these mice was the focus because the hippocampal region is where the AB-related lesions and damage are most prevalent early on in the disease.
A CX7C phage library was intravenously injected into 9 month-old AD and wild-type (WT) littermate mice, and allowed to circulate for 30 min, after which mice were perfused with saline, brains were collected, and the hippocampal region was dissected and subjected to phage titration and high throughput sequencing of the phage inserts. A surprise result was that the number of phage recovered from the AD hippocampus samples was much higher than the number recovered from a similar screen on normal littermates of the AD mice (FIG. 1A). […] BBB leakage has also been reported in AD patients.
Parallel phage library screens were performed on a normal mouse and a 9-month old AD transgenic mouse (J20 hAPP tg mouse line, which expresses transgenic amyloid precursor protein with two disease-related mutations). The library was intravenously injected into anesthetized mice and the hippocampal area of the brain was collected 30 min after intravenous injection of the library, phage was isolated from the tissue samples and subjected to high throughput sequencing of the peptide-encoding inserts in the phage DNA. Table 1 list most abundantly represented peptide from the two kinds of brains, and all peptides with significant representation in the AD brain and absent or nearly absent in the normal brain are listed in Table 2. Two peptides, CASPRLSKC (SEQ ID NO: 3) and CESPLLSEC (SEQ ID NO: 11), from among the highest scoring ones were subjected to detailed studies as described below.
hAPP-J20 mice were intravenously injected with 1e10 pfu of a CX7C (wherein X is any amino acid) naïve phage library, in 100 μL of PBS. The library was allowed to circulate for 30 minutes, after which mice were anesthetized with 2.5% avertin and perfused with PBS intracardially. The brain was removed and the hippocampus was extracted and homogenized in LB-NP 40 (1%) and phage was processed as described (Teesalu et al., Methods Enzymol 503, 35-56 (2012)). The phages in the lysate were rescued by amplification in E. coli and peptide-encoding portion of the phage genome was sequenced using Ion Torrent high throughput sequencing.

[2] = tested on: P13 model of angiogenic glioblastoma; test: In vivo homing in P13 glioblastoma model; set-up: species or system mouse; settings: systemically injected
Experimental: (§1) All animal experiments were conducted under an approved protocol of the Institutional Animal Care and Use Committee of Sanford Burnham Prebys Medical Discovery Institute. The following transgenic mouse models were used for peptide homing studies—hAPP-J20 ([…], Nature genetics 1, 345-347 (1992)), Tg2576 (Jacobsen et al., Proc Natl Acad Sci USA 103, 5161-5166 (2006)), and mTHY-1-α-synuclein model (Chesselet et al., Neurotherapeutics 9, 297-314 (2012)). The P13 glioblastoma model is a patient-derived orthotopic xenograft model (Bougnaud et al., Oncotarget, (2016)). Spheroids were cultured as described previously (Bjerkvig et al., J Neurosurg 72, 463-475 (1990)). After two weeks in culture, spheroids (volume 2.5 μl) were stereotactically implanted into the brains of nude mice. Mice were used approximately 6 weeks after tumors were induced, when mice started presenting neurological symptoms. The acute brain injury model was setup as previously described (Mann et al., Nature communications 7, 11980 (2016)). Briefly, 8 to 10 week-old male BL6 mice were anaesthetized with 4% isoflurane in 70% N2O and 30% O2, and a 5-mm craniotomy was performed using a portable drill and a trephine over the right parietotemporal cortex using a stereotactic frame. […]

[3] = tested on: hAPP-J20 mouse brain (hippocampus)
Experimental: The synthetic peptides were labeled with FAM and 100 nmol and were intravenously injected to 9-month old AD mice through the tail vein. The peptides were allowed to circulate for 30 min, after which the mice were perfused with 20 ml of PBS, the brains were collected and snap-frozen in OCT for sectioning. The peptides were detected by anti-FAM staining (green), nuclei were stained with DAPI (blue), and anti-CD31 was used to visualize blood vessels.
For peptide homing, mice were intravenously injected with 50 nmole peptide dissolved in PBS, and allowed to circulate for 30 min. Mice were then perfused intracardially with saline and all major organs were isolated and fixed in 4% paraformaldehyde (PFA) at pH 7.4 overnight. The organs were then washed with PBS and placed in graded sucrose solutions overnight before optimal cutting temperature compound (OCT) embedding. Ten-micro-meter-thick sections were cut and analyzed by immunostaining.
Frozen sections were permeabilized using PBS- 0.2% Triton™ X-100 (PBST), blocking was carried out using blocking buffer (5% BSA, 1% goat serum, 1% donkey serum in PBST. Primary antibodies were incubated in diluted (1%) blocking buffer overnight at dilutions 1/100 or 1/200 at 4° C., washed with PBST and incubated with secondary antibodies diluted 1/200 or 1/500 in 1% diluted buffer for 1 hour at room temperature, subsequently washed with PBST, counterstained with DAPI 1 μg/mL in PBS for 5 minutes, washed with PBS, mounted using aqueous mounting media (Vector Biolabs), and imaged using a confocal microscope (Zeiss LSM-710).

human AD brain sections = test: Ex vivo overlay binding to human AD brain sections
Experimental: (§2) PFA fixed sections were incubated in PBS for 10 minutes, followed by PBS-Triton-x-100 (0.2%) for 10 minutes. Sections were rinsed with PBST, mounted in a slide holder, and subsequently washed with PBS-T during 12 minutes. Slides were blocked with blocking buffer for 60 minutes at room temperature. Then, peptides were incubated at a concentration of 10 μg/mL dissolved in concentrated blocking buffer, for three hours at room temperature. Sections were then washed with three 4-minute washes of PBS-T, and subsequently fixed with PFA for 10 minutes, followed by three 3-minute washes with PBS-T. Sections were then incubated with primary antibody at 1/200 in diluted blocking buffer overnight at 4° C. Later, sections were washed with three 4-minute washes with PBS-T. Slides were then incubated with secondary antibody at 1/200 dilution in diluted blocking buffer for 30 minutes at room temperature, followed by three 4-minute washes of PBS-T. Sections were then counterstained with DAPI for 5 minutes, washed with PBS-T and mounted.
Postmortem human brain samples were obtained from the New York Brain Bank at Columbia University, New York. The patient was a person with a diagnosis of AD neuropathologic changes ([A3, B3, C3]). The normal brain tissue was obtained from BioChain Institute Inc. (Newark, Calif.). The donor was a person without any neurologic diagnosis on detailed neuropathologic evaluation. The Parkinson's disease brain tissue was obtained from UCSD Pathology bank. Frozen brain tissue was sectioned for immunohistochemistry and ex vivo overlay binding with FAM-peptides.

[4] = tested on: acute penetrating brain injury; test: In vivo homing in acute penetrating brain injury model; set-up: species or system mouse; settings: injected 6 hours after injury
Experimental: as §1

AD hippocampus = test: Homing of intravenously injected individual peptide-displaying phages; assay type: in vivo, mouse; settings: intravenously injected phage displaying the peptide
Text: FIG. 1B relates to phage titration showing that about 5 times more phage were recovered from the AD hippocampus than from the normal control. In the sequencing, phages displaying the peptides code named CASP (SEQ ID NO: 3; CASPRLSKC), CES (SEQ ID NO: 11, CESPLLSEC), and DAG (SEQ ID NO: 102, CDAGRKQKC) dominated. Hippocampus from age-matched normal wild-type mouse brain was used as a control.

[5] = tested on: mTHY-1/α-synuclein overexpressing mouse model of Parkinson's disease; test: In vivo homing in Parkinson's disease mouse model; settings: systemically injected
Experimental: as §1

[6] = tested on: hAPP-J20 mouse brain sections; test: Tissue section overlay of FAM-labeled peptides on mouse brain sections; assay type: binding; settings: hAPP-J20 vs age-matched wild-type mice, hippocampal region
Experimental: as §2

Tg2576 mouse brain = test: In vivo homing of FAM-DAG in Tg2576 mice
Experimental: as §1

CDAGRKQKC was tested, and the “Representation in sequenced phage pools, AD versus normal brain” value [1] was “dominated”, the Tumor homing [2] was “Strong tumor homing” and the “Homing in early-stage AD” value ([3]; 3-4 month old hAPP-J20 mice, i.v., 30 min) was “Robust DAG homing in young hAPP-J20 animals was observed, mostly in the cerebrocortex and the hippocampus”. The “Cellular localization in brain” value ([3]; DAG-injected hAPP-J20 mice, anti-GFAP and anti-Aβ staining) was “accumulated within a subpopulation of GFAP-positive hypertrophic astrocytes surrounding the Aβ plaques”, the “Accumulation in other organs” value ([3]; mouse, in vivo, iv) was “little if any accumulation of the peptide in other organs of the hAPP-J20 mouse except for kidney” and the “Binding to human AD brain sections” value (human AD brain sections; overlay) was “bound strongly to the hippocampal region”. The “Inhibition of binding to human AD sections by anti-CTGF antibody” value (human AD brain sections; pre-incubation with anti-CTGF antibody) was “partially inhibited by pre-incubation with anti-CTGF antibody”, the “Homing to brain injury” value [4] was “robustly homed to the perilesional area containing activated hypertrophic astrocytes” and the “Phage accumulation in normal brain” value (AD hippocampus) was “no accumulation in normal brain”. For the same sequence, the “Phage homing to AD hippocampus” value (AD hippocampus) was “home to AD hippocampus with high specificity”, the “Accumulation in Parkinson's model brain” value [5] was “accumulated in GFAP-positive astrocytes” and the “Ex vivo peptide binding to brain sections” value [6] was “bound to a much greater degree in the hippocampal region of hAPP-J20 mice than to age-matched wild-type mice; also recorded: far stronger than DAG binding to WT brain”. For the same sequence, the “Colocalization in Tg2576 brain sections” value (Tg2576 mouse brain; DAG-injected Tg2576 mice, immunostaining) was “significant colocalization of DAG with Aβ and CD31” and the “Homing in Tg2576 model” value (Tg2576 mouse brain; i.v. FAM-DAG) was “detected both in the hippocampus and in the cortex”.
